Assay results from patent US20230330067A1, “NOVEL THIOHYDANTOIN DERIVATIVES AND USES THEREOF” (CELROS BIOTECH, priority 2020, published 2023).

Legend:
human Nox1 = target: T1, human Nox1 (Homo sapiens, UniProt Q9Y5S8); assay: Lucigenin chemiluminescence assay, human Nox1; assay type: biochemical; settings: Drosophila membranes expressing hNox1; average of three assays
T1 construct: made in house; host or cells: transgenic Drosophila (UAS-hNox1/UAS-dDuox-RNAi; Da-GAL4/+), membranes from fly homogenate
T1 sequence (Q9Y5S8 1-564): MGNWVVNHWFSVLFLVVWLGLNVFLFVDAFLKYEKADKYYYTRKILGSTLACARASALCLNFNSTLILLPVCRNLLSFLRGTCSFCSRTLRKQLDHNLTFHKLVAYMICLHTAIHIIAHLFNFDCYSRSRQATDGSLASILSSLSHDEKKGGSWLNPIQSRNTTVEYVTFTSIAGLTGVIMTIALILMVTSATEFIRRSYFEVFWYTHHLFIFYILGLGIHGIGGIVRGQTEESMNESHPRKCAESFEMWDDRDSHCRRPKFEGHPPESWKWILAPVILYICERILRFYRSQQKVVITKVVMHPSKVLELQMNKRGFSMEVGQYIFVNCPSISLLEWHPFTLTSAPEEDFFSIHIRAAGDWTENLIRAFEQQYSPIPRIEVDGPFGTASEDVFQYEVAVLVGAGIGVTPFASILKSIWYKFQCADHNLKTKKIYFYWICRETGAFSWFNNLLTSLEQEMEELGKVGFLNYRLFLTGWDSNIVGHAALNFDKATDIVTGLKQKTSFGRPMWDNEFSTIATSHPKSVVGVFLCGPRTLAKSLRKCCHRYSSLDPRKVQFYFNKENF
Description: (§1) Human Nox isozymes were provided from transgenic flies expressing human Nox isozymes under the daughterless (Da)-GAL4 promoter. The genotype of each fly line is shown below. • 1) Human Nox1: UAS-hNox1/UAS-dDuox-RNAi; Da-GAL4/+ • 2) Human Nox2: UAS-hNox2/UAS-dDuox-RNAi; Da-GAL4/+ • 3) Human Nox4: UAS-hNox4/UAS-dDuox-RNAi; Da-GAL4/+
(§2) Transgenic flies were homogenized with PBS containing protease inhibitors (Aprotinin and Leupeptin) to obtain Drosophila membranes of each Nox isozyme. The membranes were incubated with compounds (100 μM, 10 μM, 1 μM, 0.1 μM, 0.01 μM, 0.001 μM, and 0 μM) for 10 min on a shaker. After that, a mixture of 500 μM NADPH (beta-nicotinamide adenine dinucleotide 2′-phosphate reduced tetrasodium salt hydrate; Sigma-Aldrich) and 400 μM lucigenin (N,N′-dimethyl-9,9′-biacridinium dinitrate; Sigma-Aldrich) in 1X HEPES (4-(2-hydroxyethyl)-1-piperazineethanesulfonic acid) buffer was added to the membrane. Lucigenin chemiluminescence was detected at 1 minute intervals for 10 min using a multimode microplate reader (SpectraMax iD3, Molecular Devices). IC50 values were calculated with Graph-Pad Prism 5 (GraphPad Software).
(§3) Lucigenin chemiluminescence assays were performed with Drosophila membranes expressing hNox1, hNox2 and hNox4. The assay was repeated three times and the average of the IC50 values was determined.

human Nox2 = target: T2, human Nox2 (Homo sapiens, UniProt P04839); assay: Lucigenin chemiluminescence assay, human Nox2; assay type: biochemical; settings: Drosophila membranes expressing hNox2; average of three assays
T2 construct: made in house; host or cells: transgenic Drosophila (UAS-hNox2/UAS-dDuox-RNAi; Da-GAL4/+), membranes from fly homogenate
T2 sequence (P04839 2-570 limits assumed): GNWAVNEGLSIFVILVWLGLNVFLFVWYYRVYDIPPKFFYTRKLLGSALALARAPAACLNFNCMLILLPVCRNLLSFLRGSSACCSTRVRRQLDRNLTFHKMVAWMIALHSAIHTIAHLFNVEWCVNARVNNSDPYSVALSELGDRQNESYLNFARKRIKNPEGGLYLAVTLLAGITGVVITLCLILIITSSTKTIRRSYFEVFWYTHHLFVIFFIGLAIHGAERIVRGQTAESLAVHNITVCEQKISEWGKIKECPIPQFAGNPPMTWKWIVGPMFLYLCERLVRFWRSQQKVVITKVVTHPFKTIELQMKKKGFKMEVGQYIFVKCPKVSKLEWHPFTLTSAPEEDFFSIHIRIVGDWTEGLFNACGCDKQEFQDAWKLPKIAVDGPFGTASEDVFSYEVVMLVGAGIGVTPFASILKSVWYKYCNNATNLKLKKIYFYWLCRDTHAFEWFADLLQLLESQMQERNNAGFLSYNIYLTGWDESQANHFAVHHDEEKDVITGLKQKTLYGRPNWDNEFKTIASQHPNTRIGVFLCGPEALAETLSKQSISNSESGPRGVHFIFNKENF
Description: as §1, §2, §3

human Nox4 = target: T3, human Nox4 (Homo sapiens, UniProt Q9NPH5); assay: Lucigenin chemiluminescence assay, human Nox4; assay type: biochemical; settings: Drosophila membranes expressing hNox4; average of three assays
T3 construct: made in house; host or cells: transgenic Drosophila (UAS-hNox4/UAS-dDuox-RNAi; Da-GAL4/+), membranes from fly homogenate
T3 sequence (Q9NPH5 1-578): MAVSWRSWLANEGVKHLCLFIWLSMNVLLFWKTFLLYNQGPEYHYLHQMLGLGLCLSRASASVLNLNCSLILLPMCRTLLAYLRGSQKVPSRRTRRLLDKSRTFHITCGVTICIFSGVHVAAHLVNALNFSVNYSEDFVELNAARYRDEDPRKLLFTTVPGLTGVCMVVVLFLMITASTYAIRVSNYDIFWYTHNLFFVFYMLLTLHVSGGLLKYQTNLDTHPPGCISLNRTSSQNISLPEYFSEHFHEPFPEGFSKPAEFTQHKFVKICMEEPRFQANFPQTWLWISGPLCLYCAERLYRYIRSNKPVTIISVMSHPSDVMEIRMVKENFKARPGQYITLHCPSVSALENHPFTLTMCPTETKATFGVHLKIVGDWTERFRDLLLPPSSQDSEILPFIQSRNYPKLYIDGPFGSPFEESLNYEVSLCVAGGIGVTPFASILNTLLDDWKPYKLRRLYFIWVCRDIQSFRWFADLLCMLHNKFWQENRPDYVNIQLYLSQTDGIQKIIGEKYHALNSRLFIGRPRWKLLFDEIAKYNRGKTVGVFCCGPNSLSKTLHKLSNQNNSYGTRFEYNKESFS
Description: as §1, §2, §3

BV2 cells = assay: Nox inhibitory effect in BV2 cells (LPS-induced ROS generation, lucigenin chemiluminescence); assay type: cell-based; settings: BV2 cells pre-treated 30 minutes, 0-10000 nM, then LPS 200 ng/ml; FIG. 3
Experimental: BV2 cells were washed with Hank's balanced salt solution (HBSS) and incubated in HBSS at 37° C. for 30 minutes. Then, the cells were treated with the compound (compound of Example 1 or compound of Example 2) at various concentrations (0 nM, 1 nM, 10 nM, 100 nM, 1000 nM, and 10000 nM). After 30 minutes, 200 ng/ml of lipopolysaccharide (LPS) and 200 μM of lucigenin were added to the cells. Lucigenin chemiluminescence was detected at 10 second intervals for 15 minutes using a luminometer (GLOMA, Promega).
Specifically, BV2 cells were pre-treated with Compound (A) of Example 1 or Compound (B) of Example 2 for 30 minutes and generation of reactive oxygen species (ROS) was detected after treatment with LPS (200 ng/ml). Data are expressed as mean ±SD (N=3).

[1] = system: PFF-induced Parkinson's disease; assay: PFF-induced Parkinson's disease mice; assay type: in vivo, C57BL/6 mice; settings: 10 mg/kg intraperitoneal daily for 3 months
Experimental: In order to develop preformed fibrils (PFF)-induced Parkinson's disease, 8-12 week old C57BL/6 mice were stereotaxically inoculated with 5 μg of PFF into the right dorsal striatum (AP+0.2 mm, […], DV 2.6 mm). Five months post single inoculation of PFF, animals were intraperitoneally injected with the compound of Example 2 at 10 mg/kg daily for 3 months. […] The maximum force of the mouse forelimb was recorded with a grip strength meter. The single inoculation of PFF impaired the grip strength of the forelimb.

| IC50 (human Nox1) [µM] | IC50 (human Nox2) [µM] | IC50 (human Nox4) [µM] | Structure (SMILES) | generation of reactive oxygen species (ROS) (BV2 cells) | amount of α-synuclein in the hippocampus (HP CA1, HP CA3) ([1]; five months post PFF inoculation, FIG. 11) | astrocyte pathology (GFAP immuno-positive astrocytes) in the prefrontal cortex (Pfcx) ([1]; FIG. 12) | microglia pathology (Iba1 immunopositive activated microglia) in Pfcx and HP CA3 ([1]; FIG. 13) | neuromuscular function (forelimb grip strength) ([1]; FIG. 14) |
| --- | --- | --- | --- | --- | --- | --- | --- | --- |
| 1.49 | 1.84 | 1.72 | CC(C)CN1C(=O)C(=Cc2ccc(N(C)CCO)cc2)N(C)C1=S (mixture of isomers) [Example 2, 5-(4-((2-hydroxyethyl)(methyl)amino)benzylidene)-3-isobutyl-1-methyl-2-thioxoimidazolidin-4-one] | significant inhibition of ROS generation | significantly decreased | reduced GFAP immuno-positive astrocytes | reduced Ibal immunopositive activated microglia | improved the grip strength |
| – | 1.58 | 1.72 | COc1cc(N(C)CCO)ccc1/C=C1\C(=O)N(C2CCCCC2)C(=S)N1C [Example 3, (E)-3-cyclohexyl-5-(4-((2-hydroxyethyl)(methyl)amino)-2-methoxybenzylidene)-1-methyl-2-thioxoimidazolidin-4-one] | – | – | – | – | – |
| – | 0.52 | 1.4 | CN1C(=S)N(C2CCCCC2)C(=O)/C1=C\c1ccc(N(C)CCO)cc1O [Example 4, (E)-3-cyclohexyl-5-(2-hydroxy-4-((2-hydroxyethyl)(methyl)amino)benzylidene)-1-methyl-2-thioxoimidazolidin-4-one] | – | – | – | – | – |
| – | 1.35 | 0.907 | CN1C(=S)N(Cc2ccccc2)C(=O)/C1=C\c1ccc(N(C)CCCO)cc1 [Example 5, (E)-3-benzyl-5-(4-((3-hydroxypropyl)(methyl)amino)benzylidene)-1-methyl-2-thioxoimidazolidin-4-one] | – | – | – | – | – |
| – | 1.96 | 1.8 | CN1C(=S)N(CCc2ccccc2)C(=O)/C1=C\c1ccc(N(C)CCO)cc1 [Example 6, (E)-5-(4-((2-hydroxyethyl)(methyl)amino)benzylidene)-1-methyl-3-phenethyl-2-thioxoimidazolidin-4-one] | – | – | – | – | – |
| – | 0.773 | 0.665 | CN1C(=S)N(Cc2ccccc2)C(=O)/C1=C\c1ccc(N(C)CCO)cc1O [Example 7, (E)-3-benzyl-5-(2-hydroxy-4-((2-hydroxyethyl)(methyl)amino)benzylidene)-1-methyl-2-thioxoimidazolidin-4-one] | – | – | – | – | – |
| – | 1.9 | 0.761 | COc1cc(N(C)CCCO)ccc1/C=C1\C(=O)N(Cc2ccccc2)C(=S)N1C [Example 8, (E)-3-benzyl-5-(4-((3-hydroxypropyl)(methyl)amino)-2-methoxybenzylidene)-1-methyl-2-thioxoimidazolidin-4-one] | – | – | – | – | – |
